{"source": "ChEMBL document CHEMBL6078667", "about": "“Synthesis, Biological Evaluation, and Mechanistic Insights of Rubrolide Analogues as Antitumor Agents” (J Nat Prod, 2024)", "key": {"MCF7 [1]": {"tested_on": "MCF7", "test": "Cytotoxicity against human MCF7 cells assessed as survival rate at 10 uM measured after 72 hrs by MTT assay relative to control", "format": "functional", "conditions": "read-out: Survival"}, "U-87 MG [2]": {"tested_on": "U-87 MG", "test": "Cytotoxicity against human U-87 MG cells assessed as inhibition of cell growth at 10 uM measured after 72 hrs by MTT assay relative to control", "format": "functional, U-87MG ATCC"}, "MCF7 [3]": {"tested_on": "MCF7", "test": "Cytotoxicity against human MCF7 cells assessed as inhibition of cell growth at 10 uM measured after 72 hrs by MTT assay relative to control", "format": "functional"}, "HeLa [4]": {"tested_on": "HeLa", "test": "Cytotoxicity against human HeLa cells assessed as inhibition of cell growth at 10 uM measured after 72 hrs by MTT assay relative to control", "format": "functional"}, "MGC-803": {"tested_on": "MGC-803", "test": "Cytotoxicity against human MGC-803 cells assessed as inhibition of cell growth incubated for 72 hrs by MTT assay", "format": "functional, cell-based", "conditions": "MGC-803, 72 h"}, "U-87 MG [5]": {"tested_on": "U-87 MG", "test": "Cytotoxicity against human U-87 MG cells assessed as inhibition of cell growth incubated for 72 hrs by MTT assay", "format": "functional, cell-based, U-87MG ATCC"}, "MKN-45": {"tested_on": "MKN-45", "test": "Cytotoxicity against human MKN-45 cells assessed as inhibition of cell growth incubated for 72 hrs by MTT assay", "format": "functional, cell-based", "conditions": "MKN-45, 72 h"}, "[6]": {"test": "Cytotoxicity against HHL-5 cells assessed as inhibition of cell growth incubated for 72 hrs by MTT assay", "format": "toxicity, cell-based", "conditions": "human"}, "HeLa [7]": {"tested_on": "HeLa", "test": "Induction of apoptosis in human HeLa cells assessed as early apoptotic cells at 0.2 uM incubated for 24 hrs by Annexin V-FITC/PI staining based flow cytometric analysis (reference value: 2.35 %)", "format": "functional"}, "HeLa [8]": {"tested_on": "HeLa", "test": "Induction of apoptosis in human HeLa cells assessed as late apoptotic cells at 0.2 uM incubated for 24 hrs by Annexin V-FITC/PI staining based flow cytometric analysis (reference value: 6.58 %)", "format": "functional"}, "HeLa [9]": {"tested_on": "HeLa", "test": "Induction of apoptosis in human HeLa cells assessed as necrotic cells at 0.2 uM incubated for 24 hrs by Annexin V-FITC/PI staining based flow cytometric analysis (reference value: 0.44 %)", "format": "functional"}, "HeLa [10]": {"tested_on": "HeLa", "test": "Induction of apoptosis in human HeLa cells assessed as viable cells at 0.4 uM incubated for 24 hrs by Annexin V-FITC/PI staining based flow cytometric analysis (reference value: 90.6 %)", "format": "functional", "conditions": "read-out: Activity"}, "HeLa [11]": {"tested_on": "HeLa", "test": "Induction of apoptosis in human HeLa cells assessed as early apoptotic cells at 0.4 uM incubated for 24 hrs by Annexin V-FITC/PI staining based flow cytometric analysis (reference value: 2.35 %)", "format": "functional"}, "HeLa [12]": {"tested_on": "HeLa", "test": "Induction of apoptosis in human HeLa cells assessed as late apoptotic cells at 0.4 uM incubated for 24 hrs by Annexin V-FITC/PI staining based flow cytometric analysis (reference value: 6.58 %)", "format": "functional"}, "HeLa [13]": {"tested_on": "HeLa", "test": "Induction of apoptosis in human HeLa cells assessed as necrotic cells at 0.4 uM incubated for 24 hrs by Annexin V-FITC/PI staining based flow cytometric analysis (reference value: 0.44 %)", "format": "functional"}, "HCT-116 [14]": {"tested_on": "HCT-116", "test": "Induction of apoptosis in human HCT-116 cells assessed as viable cells at 0.2 uM incubated for 24 hrs by Annexin V-FITC/PI staining based analysis (reference value: 92.4 %)", "format": "functional", "conditions": "read-out: Activity"}, "HCT-116 [15]": {"tested_on": "HCT-116", "test": "Induction of apoptosis in human HCT-116 cells assessed as late apoptotic cells at 0.2 uM incubated for 24 hrs by Annexin V-FITC/PI staining based analysis (reference value: 0.095 %)", "format": "functional"}, "HCT-116 [16]": {"tested_on": "HCT-116", "test": "Induction of apoptosis in human HCT-116 cells assessed as necrotic cells at 0.2 uM incubated for 24 hrs by Annexin V-FITC/PI staining based analysis (reference value: 0.083 %)", "format": "functional"}, "HCT-116 [17]": {"tested_on": "HCT-116", "test": "Induction of apoptosis in human HCT-116 cells assessed as viable cells at 0.4 uM incubated for 24 hrs by Annexin V-FITC/PI staining based analysis (reference value: 92.4 %)", "format": "functional", "conditions": "read-out: Activity"}, "HCT-116 [18]": {"tested_on": "HCT-116", "test": "Induction of apoptosis in human HCT-116 cells assessed as late apoptotic cells at 0.4 uM incubated for 24 hrs by Annexin V-FITC/PI staining based analysis (reference value: 0.095 %)", "format": "functional"}, "HCT-116 [19]": {"tested_on": "HCT-116", "test": "Induction of apoptosis in human HCT-116 cells assessed as necrotic cells at 0.4 uM incubated for 24 hrs by Annexin V-FITC/PI staining based analysis (reference value: 0.083 %)", "format": "functional"}, "[20]": {"test": "Drug localization in human HeLa cell mitochondria incubated for 8 hrs by Mito-tracker green dye based fluorescence microscopic analysis", "format": "ADME"}, "[21]": {"test": "Drug localization in human HCT-116 cell mitochondria incubated for 8 hrs by Mito-tracker green dye based fluorescence microscopic analysis", "format": "ADME", "conditions": "hct-116, 8 h"}, "[22]": {"test": "Drug localization in human HeLa cell endoplasmic reticulum incubated for 8 hrs by […] dye based fluorescence microscopic analysis", "format": "ADME, subcellular"}, "[23]": {"test": "Drug localization in human HCT-116 cell endoplasmic reticulum incubated for 8 hrs by […] dye based fluorescence microscopic analysis", "format": "ADME, subcellular", "conditions": "hct-116, 8 h"}, "HeLa [24]": {"tested_on": "HeLa", "test": "Upregulation of phosphorylated PERK expression in human HeLa cells at 0.2 to 0.4 uM measured after 48 hrs by Western blot analysis", "format": "functional, cell-based", "conditions": "dose 0.2-0.4 µM"}, "HeLa [25]": {"tested_on": "HeLa", "test": "Upregulation of phosphorylated eIF2alpha expression in human HeLa cells at 0.2 to 0.4 uM measured after 48 hrs by Western blot analysis", "format": "functional, cell-based", "conditions": "dose 0.2-0.4 µM"}, "HeLa [26]": {"tested_on": "HeLa", "test": "Induction of ROS production in human HeLa cells at 0.2 to 0.4 uM incubated for 24 hrs by DCFH-DA probe based flow cytometric analysis", "format": "functional, cell-based", "conditions": "dose 0.2-0.4 µM"}, "HCT-116 [27]": {"tested_on": "HCT-116", "test": "Induction of ROS production in human HCT-116 cells at 0.2 to 0.4 uM incubated for 24 hrs by DCFH-DA probe based flow cytometric analysis", "format": "functional, cell-based", "conditions": "dose 0.2-0.4 µM"}, "HCT-116 [28]": {"tested_on": "HCT-116", "test": "Induction of ROS production in human HCT-116 cells assessed as fold change at 0.2 to 0.4 uM incubated for 24 hrs by DCFH-DA probe based flow cytometric analysis", "format": "functional", "conditions": "dose 0.2-0.4 µM"}, "HeLa [29]": {"tested_on": "HeLa", "test": "Cell cycle arrest in human HeLa cells assessed as accumulation of cells at G2/M phase at 0.2 uM measured after 24 hrs by PI staining based flow cytometric analysis (reference value: 22.8 %)", "format": "functional"}, "HCT-116 [30]": {"tested_on": "HCT-116", "test": "Cell cycle arrest in human HCT-116 cells assessed as accumulation of cells at G0/G1 phase at 0.2 uM measured after 24 hrs by PI staining based flow cytometric analysis (reference value: 51.3 %)", "format": "functional"}, "HCT-116 [31]": {"tested_on": "HCT-116", "test": "Cell cycle arrest in human HCT-116 cells assessed as accumulation of cells at G0/G1 phase at 0.4 uM measured after 24 hrs by PI staining based flow cytometric analysis (reference value: 51.3 %)", "format": "functional"}, "HCT-116 [32]": {"tested_on": "HCT-116", "test": "Cell cycle arrest in human HCT-116 cells assessed as accumulation of cells at G2/M phase at 0.4 uM measured after 24 hrs by PI staining based flow cytometric analysis (reference value: 26.4 %)", "format": "functional"}, "HeLa [33]": {"tested_on": "HeLa", "test": "Cell cycle arrest in human HeLa cells assessed as increase in cyclin B1 expression at 0.2 to 0.4 uM incubated for 24 hrs by Western blot analysis", "format": "functional, cell-based", "conditions": "dose 0.2-0.4 µM"}, "HCT-116 [34]": {"tested_on": "HCT-116", "test": "Cell cycle arrest in human HCT-116 cells assessed as increase in cyclin B1 expression at 0.2 to 0.4 uM incubated for 24 hrs by Western blot analysis", "format": "functional, cell-based", "conditions": "dose 0.2-0.4 µM"}, "HeLa [35]": {"tested_on": "HeLa", "test": "Antitumor activity against human HeLa cells xenografted in female BALB/c nude mouse assessed as reduction in tumor cell growth administered intraperitoneally as liposome formulation once daily for 13 days", "format": "functional", "conditions": "dose 5-20 mg/kg, route ip, time 13.0 day"}}, "note": "Activity calls are given as the source filed them. No cut-off for these calls is given here."}
{"smiles": "COc1ccc(C2=CC(=O)O/C2=C\\c2ccc(O)cc2)cc1", "values": [{"measurement": "viability at 10 µM", "setting": "MCF7 [1]", "result": 24.8, "unit": "%"}, {"measurement": "inhibition at 10 µM", "setting": "U-87 MG [2]", "result": "> 50", "unit": "%"}, {"measurement": "inhibition at 10 µM", "setting": "MCF7 [3]", "result": "> 50", "unit": "%"}, {"measurement": "inhibition at 10 µM", "setting": "HeLa [4]", "result": "> 50", "unit": "%"}, {"measurement": "IC50", "setting": "MGC-803", "result": 1.1, "unit": "µM"}, {"measurement": "IC50", "setting": "U-87 MG [5]", "result": 2.4, "unit": "µM"}, {"measurement": "IC50", "setting": "MKN-45", "result": 0.2, "unit": "µM"}, {"measurement": "IC50 at 72 h", "setting": "[6]", "result": 6.3, "unit": "µM"}, {"measurement": "Activity", "setting": "HeLa [7]", "result": 4.86, "unit": "%"}, {"measurement": "Activity", "setting": "HeLa [8]", "result": 11.5, "unit": "%"}, {"measurement": "Activity", "setting": "HeLa [9]", "result": 0.44, "unit": "%"}, {"measurement": "viability at 0.4 µM", "setting": "HeLa [10]", "result": 47.9, "unit": "%"}, {"measurement": "Activity", "setting": "HeLa [11]", "result": 10.5, "unit": "%"}, {"measurement": "Activity", "setting": "HeLa [12]", "result": 40.6, "unit": "%"}, {"measurement": "Activity", "setting": "HeLa [13]", "result": 1, "unit": "%"}, {"measurement": "viability at 0.2 µM", "setting": "HCT-116 [14]", "result": 82.7, "unit": "%"}, {"measurement": "Activity", "setting": "HCT-116 [15]", "result": 7.71, "unit": "%"}, {"measurement": "Activity", "setting": "HCT-116 [16]", "result": 5.89, "unit": "%"}, {"measurement": "viability at 0.4 µM", "setting": "HCT-116 [17]", "result": 69.6, "unit": "%"}, {"measurement": "Activity", "setting": "HCT-116 [18]", "result": 14.7, "unit": "%"}, {"measurement": "Activity", "setting": "HCT-116 [19]", "result": 7.38, "unit": "%"}, {"measurement": "Drug uptake", "setting": "[20]", "result": "Not_active"}, {"measurement": "Drug uptake", "setting": "[21]", "result": "Not_active"}, {"measurement": "Drug uptake", "setting": "[22]", "result": "Active"}, {"measurement": "Drug uptake", "setting": "[23]", "result": "Active"}, {"measurement": "Activity", "setting": "HeLa [24]", "result": "Active; Compound Impacts Endoplasmic Reticulum Stress Related Perk-Eif2Alpha-Chop Signalling Pathway"}, {"measurement": "Activity", "setting": "HeLa [25]", "result": "Active; Compound Impacts Endoplasmic Reticulum Stress Related Perk-Eif2Alpha-Chop Signalling Pathway"}, {"measurement": "Activity", "setting": "HeLa [26]", "result": "Active"}, {"measurement": "Activity", "setting": "HCT-116 [27]", "result": "Active"}, {"measurement": "fold change (FC)", "setting": "HCT-116 [28]", "result": ">4"}, {"measurement": "Activity", "setting": "HeLa [29]", "result": 58.6, "unit": "%"}, {"measurement": "Activity", "setting": "HCT-116 [30]", "result": 38.8, "unit": "%"}, {"measurement": "Activity", "setting": "HCT-116 [31]", "result": 23.2, "unit": "%"}, {"measurement": "Activity", "setting": "HCT-116 [32]", "result": 31.6, "unit": "%"}, {"measurement": "Activity", "setting": "HeLa [33]", "result": "Active"}, {"measurement": "Activity", "setting": "HCT-116 [34]", "result": "Active"}, {"measurement": "Activity", "setting": "HeLa [35]", "result": "Dose-dependent-effect"}]}
